# Several values for one entry are separate records, joined by “and”; a condition that tells them apart may be missing. Identical values can stand only once. Like-named read-outs stand apart in the source and are kept apart here.
# How the values were obtained:
# SFRP-1 [1] = target: T1, SFRP-1 (Homo sapiens, UniProt Q8N474); test: Cell-based assay for in vitro measurement of SFRP-1/SARP2 antagonist activity (U2OS cells co-transfected with 16x TCF-tk-Luciferase reporter, Wnt and hSFRP-1); details: for fold induction at 15 µM / fold induction at 10 µM: U2OS; for fold induction at 15 µM: single dose, luciferase reporter; for fold induction at 10 µM: read-out: Fold Induction with SFRP-1, U2OS cells, single dose 10 μM, luciferase reporter, fold induction over SFRP-1 control;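 on all read-outs here: U2OS cells co-transfected with a TCF-tk luciferase reporter, a Wnt vector, hSFRP-1 or empty vector and CMV-βgal, luciferase luminescence read in cell lysates alongside βgal activity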
# T1 sequence (Q8N474 32-314): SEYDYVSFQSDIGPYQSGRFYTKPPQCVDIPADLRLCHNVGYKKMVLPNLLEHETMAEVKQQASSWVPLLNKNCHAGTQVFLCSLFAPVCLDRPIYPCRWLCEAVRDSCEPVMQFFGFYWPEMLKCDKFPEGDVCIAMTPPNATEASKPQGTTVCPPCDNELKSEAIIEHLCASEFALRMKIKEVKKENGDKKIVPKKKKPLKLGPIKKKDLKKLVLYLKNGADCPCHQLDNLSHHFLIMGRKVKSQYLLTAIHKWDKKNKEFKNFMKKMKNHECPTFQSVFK
# SFRP-1 [2] = target: T1, SFRP-1; test: Fluorescence polarization binding assay (competitive displacement of a probe compound from SFRP-1); details: fluorescence anisotropy, 45 nM SFRP-1, 20 nM probe;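 further: test compound competes with a fluorescent probe held by SFRP-1, seen as a drop in probe anisotropy after incubation in darkness, with anisotropy as function of rising compound dose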
# [3] = read-out: Fold Induction with SFRP-1, Conc 15 μM, fold induction over SFRP-1 control, cells with SFRP-1
# [4] = read-out: Fold Induction without SFRP-1, Conc 15 μM, cells without SFRP-1 (specificity control)
fold induction at 15 µM (SFRP-1 [1]; [3]),fold induction at 15 µM (SFRP-1 [1]; [4]),melting point [°C],IC50 (SFRP-1 [2]),EC50 (SFRP-1 [1]) [µM],fold induction at 10 µM (SFRP-1 [1]),SMILES
3.1,1.2,100 to 102,0.7 µM and 1.1 µM,,,"CCCc1ccc(S(=O)(=O)c2ccccc2)cc1S(=O)(=O)NCCc1ccccn1 [Example 555, 5-(Phenylsulfonyl)-2-propyl-N-(2-pyridin-2-ylethyl)benzenesulfonamide]"
4,1.2,143 to 146,0.3 µM,,,"CCCc1ccc(S(=O)(=O)c2ccccc2)cc1S(=O)(=O)NCCCn1ccnc1 [Example 556, N-[3-(1H-Imidazol-1-yl)propyl]-5-(phenylsulfonyl)-2-propylbenzenesulfonamide]"
1.8,1.1,128 to 130,0.7 µM,,,"CCCc1ccc(S(=O)(=O)c2ccccc2)cc1S(=O)(=O)NC1CCN(C(=O)OC(C)(C)C)CC1 [Example 558, tert-Butyl 4-({[5-(phenylsulfonyl)-2-propylphenyl]sulfonyl}amino)piperidine-1-carboxylate]"
1.6,0.9,131 to 133,1.7 µM and 2.7 µM,,,"CCCc1ccc(S(=O)(=O)c2ccc(F)cc2)cc1S(=O)(=O)NC1CCOCC1 [Example 560, 5-[(4-Fluorophenyl)sulfonyl]-2-propyl-N-(tetrahydro-2H-pyran-4-yl)benzenesulfonamide]"
3.3,1.3,113 to 115,1.4 µM and 1.6 µM,,,"CCCc1ccc(S(=O)(=O)c2ccc(F)cc2)cc1S(=O)(=O)NCCc1ccccn1 [Example 564, 5-[(4-Fluorophenyl)sulfonyl]-2-propyl-N-(2-pyridin-2-ylethyl)benzenesulfonamide]"
2.2,1.3,151 to 153,1.6 µM,,,"CCCc1ccc(S(=O)(=O)c2ccc(F)cc2)cc1S(=O)(=O)NC1CCN(C(=O)OC(C)(C)C)CC1 [Example 567, tert-Butyl 4-[({5-[(4-fluorophenyl)sulfonyl]-2-propylphenyl}sulfonyl)amino]piperidine-1-carboxylate]"
2.4,1.2,151 to 153,0.16 µM,,,"O=S(=O)(NCCc1ccccc1)c1cc(S(=O)(=O)c2ccccc2)ccc1C(F)(F)F [Example 570, N-(2-Phenylethyl)-5-(phenylsulfonyl)-2-(trifluoromethyl)-benzenesulfonamide]"
3.1,1.2,149 to 151,0.13 µM and 0.3 µM,,,"O=S(=O)(NCCc1ccccn1)c1cc(S(=O)(=O)c2ccccc2)ccc1C(F)(F)F [Example 571, 5-(Phenylsulfonyl)-N-(2-pyridin-2-ylethyl)-2-(trifluoromethyl)benzenesulfonamide]"
3.8,1.1,155 to 158,0.3 µM and 0.5 µM,,,"O=S(=O)(NC1CCOCC1)c1cc(S(=O)(=O)c2ccccc2)ccc1C(F)(F)F [Example 608, 5-(phenylsulfonyl)-N-(tetrahydro-2H-pyran-4-yl)-2-(trifluoromethyl)benzenesulfonamide]"
1.4,1.1,156 to 158,2.1 µM,,,"CC(C)c1cc(C(C)C)c(S(=O)(=O)c2ccccc2)cc1S(=O)(=O)NCCc1ccccc1 [Example 609, 2,4-Diisopropyl-N-(2-phenylethyl)-5-(phenylsulfonyl)benzenesulfonamide]"
2.5,1.1,159 to 160,0.9 µM,,,"CC(C)c1cc(C(C)C)c(S(=O)(=O)c2ccccc2)cc1S(=O)(=O)NC1CCOCC1 [Example 610, 2,4-Diisopropyl-5-(phenylsulfonyl)-N-(tetrahydro-2H-pyran-4-yl)benzenesulfonamide]"
2.6,1.1,148 to 150,1.3 µM,,,"CC(C)c1cc(C(C)C)c(S(=O)(=O)c2ccccc2)cc1S(=O)(=O)NCC1CCOCC1 [Example 611, 2,4-Diisopropyl-5-(phenylsulfonyl)-N-(tetrahydro-2H-pyran-4-ylmethyl)benzenesulfonamide]"
2,1.1,90 to 92,1.6 µM,,,"CC(C)c1cc(C(C)C)c(S(=O)(=O)c2ccccc2)cc1S(=O)(=O)NCCC1CCOCC1 [Example 612, 2,4-Diisopropyl-5-(phenylsulfonyl)-N-[2-(tetrahydro-2H-pyran-4-yl)ethyl]benzenesulfonamide]"
1.3,1,179 to 181,2.5 µM and 3 µM,,,"CC(C)c1cc(C(C)C)c(S(=O)(=O)c2ccccc2)cc1S(=O)(=O)NC1CCCC1 [Example 613, N-Cyclopentyl-2,4-diisopropyl-5-(phenylsulfonyl)benzenesulfonamide]"
1.8,1,189 to 191,1.3 µM,,,"CC(C)c1cc(C(C)C)c(S(=O)(=O)c2ccccc2)cc1S(=O)(=O)NCCc1ccccn1 [Example 614, 2,4-Diisopropyl-5-(phenylsulfonyl)-N-(2-pyridin-2-ylethyl)benzenesulfonamide]"
1.7,1,203 to 205,1.2 µM,,,"CC(C)c1cc(C(C)C)c(S(=O)(=O)c2ccccc2)cc1S(=O)(=O)NCCCn1ccnc1 [Example 615, N-[3-(1H-Imidazol-1-yl)propyl]-2,4-diisopropyl-5-(phenylsulfonyl)benzenesulfonamide]"
2.7,1,163 to 165,0.8 µM,,,"CC(C)c1cc(C(C)C)c(S(=O)(=O)c2ccccc2)cc1S(=O)(=O)NCCc1cccnc1 [Example 616, 2,4-Diisopropyl-5-(phenylsulfonyl)-N-(2-pyridin-3-ylethyl)benzenesulfonamide]"
2,1.2,178 to 180,1 µM,,,"CC(C)c1cc(C(C)C)c(S(=O)(=O)c2ccccc2)cc1S(=O)(=O)NCCc1ccncc1 [Example 617, 2,4-Diisopropyl-5-(phenylsulfonyl)-N-(2-pyridin-4-ylethyl)benzenesulfonamide]"
2.7,1,183 to 186,1 µM,,,"CC(C)c1cc(C(C)C)c(S(=O)(=O)c2ccc(F)cc2)cc1S(=O)(=O)NC1CCOCC1 [Example 620, 5-[(4-Fluorophenyl)sulfonyl]-2,4-diisopropyl-N-(tetrahydro-2H-pyran-4-yl)benzenesulfonamide]"
2.1,1,200 to 202,3 µM,,,"CC(C)c1cc(C(C)C)c(S(=O)(=O)c2ccc(F)cc2)cc1S(=O)(=O)NCC1CCOCC1 [Example 629, 5-[(4-Fluorophenyl)sulfonyl]-2,4-diisopropyl-N-(tetrahydro-2H-pyran-4-ylmethyl)benzenesulfonamide]"
2.2,1,141 to 143,4 µM,,,"CC(C)c1cc(C(C)C)c(S(=O)(=O)c2ccc(F)cc2)cc1S(=O)(=O)NCCC1CCOCC1 [Example 630, 5-[(4-Fluorophenyl)sulfonyl]-2,4-diisopropyl-N-[2-(tetrahydro-2H-pyran-4-yl)ethyl]benzenesulfonamide]"
2.4,1,159 to 161,4 µM,,,"CC(C)c1cc(C(C)C)c(S(=O)(=O)c2ccc(F)cc2)cc1S(=O)(=O)NCCc1ccccn1 [Example 631, 5-[(4-Fluorophenyl)sulfonyl]-2,4-diisopropyl-N-(2-pyridin-2-ylethyl)benzenesulfonamide]"
3,1,148 to 150,2.6 µM,,,"CC(C)c1cc(C(C)C)c(S(=O)(=O)c2ccc(F)cc2)cc1S(=O)(=O)NCCc1cccnc1 [Example 632, 5-[(4-Fluorophenyl)sulfonyl]-2,4-diisopropyl-N-(2-pyridin-3-ylethyl)benzenesulfonamide]"
,,225,0.17 µM,0.301,2.6,"CC(C)c1ccc(S(=O)(=O)c2ccccc2)cc1S(=O)(=O)NC1CCN(C(=O)c2ccccc2)CC1 [Example 802, N-(1-Benzoylpiperidin-4-yl)-2-isopropyl-5-(phenylsulfonyl)benzenesulfonamide]"
,,160 to 162,0.29 µM,,3.2,"COc1ccccc1C(=O)N1CCC(NS(=O)(=O)c2cc(S(=O)(=O)c3ccccc3)ccc2C(C)C)CC1 [Example 803, 2-Isopropyl-N-[1-(2-methoxybenzoyl)piperidin-4-yl]-5-(phenylsulfonyl)benzenesulfonamide]"

# — US20060276464A1, “Diarylsulfone sulfonamides and use thereof” (Wyeth, priority 2005, published 2006)
